Data reported in US20060063736A1, “Compositions and methods for inhibiting mucin-type O-linked glycosylation” (priority 2004, published 2006).

Molecular target: T1, rppGalNAcT-5 (Rattus norvegicus, UniProt O88422)
T1 construct: plasmids encoding truncated secreted ppGalNAcTs-1 to −5, -7, -10 and -11; FLAG; made in house; host or cells: COS-7
T1 sequence (O88422 36-930 limits assumed): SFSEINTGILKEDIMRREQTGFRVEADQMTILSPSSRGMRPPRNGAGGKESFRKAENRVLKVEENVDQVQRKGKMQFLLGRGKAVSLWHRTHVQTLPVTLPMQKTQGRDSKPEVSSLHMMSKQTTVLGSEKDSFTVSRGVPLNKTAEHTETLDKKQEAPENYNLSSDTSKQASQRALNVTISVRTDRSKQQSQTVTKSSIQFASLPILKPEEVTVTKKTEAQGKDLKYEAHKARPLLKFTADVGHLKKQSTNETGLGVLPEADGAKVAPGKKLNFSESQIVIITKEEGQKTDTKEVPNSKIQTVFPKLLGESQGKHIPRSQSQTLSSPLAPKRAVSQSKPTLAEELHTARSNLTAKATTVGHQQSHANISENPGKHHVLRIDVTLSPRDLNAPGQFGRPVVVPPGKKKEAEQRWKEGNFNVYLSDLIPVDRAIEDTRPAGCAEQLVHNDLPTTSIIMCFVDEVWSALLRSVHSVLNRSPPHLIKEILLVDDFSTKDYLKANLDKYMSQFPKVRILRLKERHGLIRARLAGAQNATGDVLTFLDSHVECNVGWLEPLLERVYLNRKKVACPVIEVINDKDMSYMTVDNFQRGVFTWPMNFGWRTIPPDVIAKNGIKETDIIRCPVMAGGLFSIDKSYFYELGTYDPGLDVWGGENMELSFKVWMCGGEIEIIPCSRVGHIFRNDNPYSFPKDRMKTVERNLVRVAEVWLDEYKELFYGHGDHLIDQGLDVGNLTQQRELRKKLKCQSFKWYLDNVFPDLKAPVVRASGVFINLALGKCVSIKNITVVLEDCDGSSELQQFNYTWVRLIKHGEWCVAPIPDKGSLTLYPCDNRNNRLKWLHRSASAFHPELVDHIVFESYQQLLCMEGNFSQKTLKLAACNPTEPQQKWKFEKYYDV
Experiment: Radiolabel capture assay, rppGalNAcT-5
Format: biochemical
Conditions: α-FLAG purified enzyme
Procedure: Radiolabel capture assays using ^14C-labeled UDP-GalNAc were performed as previously described with various concentrations of 1-68A or 2-68A in 2% DMSO. Ten Hagen et al. (2001) J. Biol. Chem. 276:17395-17404.
Table 1. IC50 values for 1-68A and 2-68A with ppGalNAcTs-1 to −5, -7, -10, -11, β1-4GalT and α1-3GalT. The requirement of glycopeptides as substrates for ppGalNAcT-7 and -10 precluded the use of the ELLA, as both the substrate and product bind HPA-HRP. Thus, the radiolabel capture assay was employed to measure the IC50 values of 1-68A and 2-68A with ppGalNAcT-7 and -10 using MUC5AC (GTTPSPVPTTSTTSAP; SEQ ID NO:15) glycopeptide, previously shown to be substrate for both enzymes. Ten Hagen et al. (1999) J. Biol. Chem. 274:27867-27874; and Ten Hagen et al. (2001) J. Biol. Chem. 276:17395-17404. IC50 values of 1-68A and 2-68A with ppGalNAcT-5 were performed with α-FLAG purified enzyme and radiolabel capture assay, due to low activity and stability of the crude enzyme. m=murine, r=rattus.

| Structure (SMILES) | IC50 [µM] |
| --- | --- |
| O=c1ccn([C@@H]2O[C@H](CON=Cc3ccc(O)c(O)c3O)[C@@H](O)[C@H]2O)c(=O)[nH]1 [1-68A] | 20 ± 2 |
| O=C(CON=Cc1ccc(O)c(O)c1O)NC[C@H]1O[C@@H](n2ccc(=O)[nH]c2=O)[C@H](O)[C@@H]1O [2-68A] | 26 ± 9 |
